This data set has as its target T1, UGT1A7 (Homo sapiens, UniProt Q9HAW7).
T1 sequence (Q9HAW7 26-530): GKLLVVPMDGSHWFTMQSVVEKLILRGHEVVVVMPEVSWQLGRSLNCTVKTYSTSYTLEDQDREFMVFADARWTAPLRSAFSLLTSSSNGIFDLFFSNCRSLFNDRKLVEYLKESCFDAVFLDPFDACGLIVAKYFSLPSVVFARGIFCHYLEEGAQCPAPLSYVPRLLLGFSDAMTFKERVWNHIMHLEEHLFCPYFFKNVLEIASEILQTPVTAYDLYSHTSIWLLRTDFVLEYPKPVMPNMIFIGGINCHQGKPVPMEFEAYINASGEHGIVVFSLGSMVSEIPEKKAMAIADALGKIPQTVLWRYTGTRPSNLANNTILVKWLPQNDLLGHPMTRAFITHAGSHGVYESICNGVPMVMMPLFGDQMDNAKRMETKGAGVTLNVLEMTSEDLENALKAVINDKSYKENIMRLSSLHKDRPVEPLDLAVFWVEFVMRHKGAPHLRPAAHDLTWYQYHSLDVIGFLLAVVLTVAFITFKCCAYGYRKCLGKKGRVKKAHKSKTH
The data set is described as follows: Glucuronidation by recombinant human UGT1A7. To be noted: UGT1A7, substrate 10 μM.

With `O=c1c(O)c(-c2ccc(O)cc2)oc2cc(O)cc(O)c12` [5,7,4'THFnol, 3,5,7,4’-tetrahydroxyflavone], the Hydroxyl positions glucuronidated entry is “glucuronidated 3-O, 7-O and 4’-O”.

Source of the values: paper PMC3391414 (Journal of Agricultural and Food Chemistry, 2011).
